This is an account of results in ChEMBL document CHEMBL1201862, “PubChem BioAssay data set” (2004).

Assay [1] in a line: Luminescence Cell-Based Dose Response HTS to Identify Activators of Luciferase Translation or Activity in H4 […] Cells. [Related pubchem assays: 1829 (Project Summary), 1814 (Primary HTS)]. In kind it is functional.
In another assay the test system is H4. The experiment in a line: Luminescence Cell-Based Dose Response HTS to Identify Activators of 5'UTR Stem-Loop Driven Prion Protein mRNA Translation in H4 Neuroglioblastoma Cells. [Related pubchem assays: 1829 (Project Summary), 1814 (Primary HTS)]. In kind it is functional. The settings on record: Homo sapiens.
Assay [2] in a line: Luminescence Cell-Based Dose Response to Identify Activators of Luciferase Translation or Activity in H4-C Neuroglioblastoma Cells. [Related pubchem assays: 1829 (Project Summary), 1814 (Primary HTS)]. In kind it is functional.
Assay [3] in a line: Luminescence Cell-Based Dose Confirmation to Identify Activators of 5'UTR Stem-Loop Driven Alpha-Synuclein mRNA Translation in H4 Neuroglioblastoma Cells. [Related pubchem assays: 1829 (Project Summary), 1814 (Primary HTS)]. In kind it is functional.
In a further assay the target is Prothrombin (Bos taurus, UniProt P00735). The assay is described as follows: thrombin protease inhibitors – biochemical, fluorescence polarization, uHTS hits, dose response (AID 602369). In kind it is functional.
Assay [4] deals with 72 kDa type IV collagenase (Homo sapiens, UniProt P08253). The experiment in a line: Dose Response validation of uHTS RPN11 inhibitor hits using a MMP-2 Fluorescence assay. In kind it is functional.
Chain of 72 kDa type IV collagenase (P08253 whole entry): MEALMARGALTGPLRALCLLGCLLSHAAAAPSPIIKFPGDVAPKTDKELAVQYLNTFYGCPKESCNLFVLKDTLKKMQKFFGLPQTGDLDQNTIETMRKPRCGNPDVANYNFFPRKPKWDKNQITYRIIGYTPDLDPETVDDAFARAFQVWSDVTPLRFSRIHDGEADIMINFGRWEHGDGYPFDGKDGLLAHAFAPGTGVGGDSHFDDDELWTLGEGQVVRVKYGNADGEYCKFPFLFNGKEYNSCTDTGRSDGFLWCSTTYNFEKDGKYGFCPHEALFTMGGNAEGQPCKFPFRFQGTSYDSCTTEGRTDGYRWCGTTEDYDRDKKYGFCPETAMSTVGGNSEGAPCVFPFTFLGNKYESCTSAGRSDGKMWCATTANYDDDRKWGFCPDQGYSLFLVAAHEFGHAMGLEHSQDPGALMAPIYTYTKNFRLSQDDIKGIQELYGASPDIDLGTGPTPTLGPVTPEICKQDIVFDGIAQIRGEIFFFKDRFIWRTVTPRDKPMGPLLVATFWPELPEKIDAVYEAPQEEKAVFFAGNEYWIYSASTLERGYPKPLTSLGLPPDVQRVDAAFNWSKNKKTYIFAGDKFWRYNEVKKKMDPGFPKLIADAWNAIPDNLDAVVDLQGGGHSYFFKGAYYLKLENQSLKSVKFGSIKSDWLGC
In assay [5] the target is 26S proteasome non-ATPase regulatory subunit 14 (Homo sapiens, UniProt O00487). The assay is described as follows: inhibition of proteasome subunit RPN11 – biochemical, fluorescence polarization, uHTS hits, confirmation (AID 602368). In kind it is functional. (Polarisation of emitted light reports the rotation of a fluorescent probe.)
Chain of 26S proteasome non-ATPase regulatory subunit 14 (O00487 whole entry): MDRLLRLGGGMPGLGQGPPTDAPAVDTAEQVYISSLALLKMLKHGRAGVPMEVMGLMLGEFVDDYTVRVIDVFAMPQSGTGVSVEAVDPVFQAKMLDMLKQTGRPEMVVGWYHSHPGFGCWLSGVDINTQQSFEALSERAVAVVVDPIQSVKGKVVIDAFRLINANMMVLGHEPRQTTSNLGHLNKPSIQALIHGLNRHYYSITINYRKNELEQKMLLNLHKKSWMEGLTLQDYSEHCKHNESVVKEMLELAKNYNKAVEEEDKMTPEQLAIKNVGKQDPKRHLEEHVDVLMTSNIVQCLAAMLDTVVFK
The nature of assay [6]: Luminescence Cell-Based Dose Response to Identify Activators of 5'UTR Stem-Loop Driven Prion Protein mRNA Translation in H4-C Neuroglioblastoma Cells. [Related pubchem assays: 1829 (Project Summary), 1814 (Primary HTS)]. In kind it is functional.
Assay [7] can be described thus: Luminescence Cell-Based Dose Confirmation HTS to Identify Activators of 5'UTR Stem-Loop Driven Alpha-Synuclein mRNA Translation in H4 Neuroglioblastoma Cells. [Related pubchem assays: 1829 (Project Summary), 1814 (Primary HTS)]. In kind it is functional.
A short description of assay [8]: Dd2 parasite growth inhibition in erythrocytes – SYBR Green, dry powder samples, set 9, dose response (AID 1159568). In kind it is functional, cell-based.
Assay [9] deals with T1, Fatty acid synthase (Homo sapiens, UniProt P49327). The experiment in a line: inhibition of human FAS-TE enzyme activity – biochemical, endpoint fluorescence intensity, uHTS hits, dose response (AID 624327).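 Also: fluorescence from hydrolysis of an O-methyl fluorescein acyl ester substrate by the enzyme.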 In kind it is functional.
T1 sequence (P49327 whole entry): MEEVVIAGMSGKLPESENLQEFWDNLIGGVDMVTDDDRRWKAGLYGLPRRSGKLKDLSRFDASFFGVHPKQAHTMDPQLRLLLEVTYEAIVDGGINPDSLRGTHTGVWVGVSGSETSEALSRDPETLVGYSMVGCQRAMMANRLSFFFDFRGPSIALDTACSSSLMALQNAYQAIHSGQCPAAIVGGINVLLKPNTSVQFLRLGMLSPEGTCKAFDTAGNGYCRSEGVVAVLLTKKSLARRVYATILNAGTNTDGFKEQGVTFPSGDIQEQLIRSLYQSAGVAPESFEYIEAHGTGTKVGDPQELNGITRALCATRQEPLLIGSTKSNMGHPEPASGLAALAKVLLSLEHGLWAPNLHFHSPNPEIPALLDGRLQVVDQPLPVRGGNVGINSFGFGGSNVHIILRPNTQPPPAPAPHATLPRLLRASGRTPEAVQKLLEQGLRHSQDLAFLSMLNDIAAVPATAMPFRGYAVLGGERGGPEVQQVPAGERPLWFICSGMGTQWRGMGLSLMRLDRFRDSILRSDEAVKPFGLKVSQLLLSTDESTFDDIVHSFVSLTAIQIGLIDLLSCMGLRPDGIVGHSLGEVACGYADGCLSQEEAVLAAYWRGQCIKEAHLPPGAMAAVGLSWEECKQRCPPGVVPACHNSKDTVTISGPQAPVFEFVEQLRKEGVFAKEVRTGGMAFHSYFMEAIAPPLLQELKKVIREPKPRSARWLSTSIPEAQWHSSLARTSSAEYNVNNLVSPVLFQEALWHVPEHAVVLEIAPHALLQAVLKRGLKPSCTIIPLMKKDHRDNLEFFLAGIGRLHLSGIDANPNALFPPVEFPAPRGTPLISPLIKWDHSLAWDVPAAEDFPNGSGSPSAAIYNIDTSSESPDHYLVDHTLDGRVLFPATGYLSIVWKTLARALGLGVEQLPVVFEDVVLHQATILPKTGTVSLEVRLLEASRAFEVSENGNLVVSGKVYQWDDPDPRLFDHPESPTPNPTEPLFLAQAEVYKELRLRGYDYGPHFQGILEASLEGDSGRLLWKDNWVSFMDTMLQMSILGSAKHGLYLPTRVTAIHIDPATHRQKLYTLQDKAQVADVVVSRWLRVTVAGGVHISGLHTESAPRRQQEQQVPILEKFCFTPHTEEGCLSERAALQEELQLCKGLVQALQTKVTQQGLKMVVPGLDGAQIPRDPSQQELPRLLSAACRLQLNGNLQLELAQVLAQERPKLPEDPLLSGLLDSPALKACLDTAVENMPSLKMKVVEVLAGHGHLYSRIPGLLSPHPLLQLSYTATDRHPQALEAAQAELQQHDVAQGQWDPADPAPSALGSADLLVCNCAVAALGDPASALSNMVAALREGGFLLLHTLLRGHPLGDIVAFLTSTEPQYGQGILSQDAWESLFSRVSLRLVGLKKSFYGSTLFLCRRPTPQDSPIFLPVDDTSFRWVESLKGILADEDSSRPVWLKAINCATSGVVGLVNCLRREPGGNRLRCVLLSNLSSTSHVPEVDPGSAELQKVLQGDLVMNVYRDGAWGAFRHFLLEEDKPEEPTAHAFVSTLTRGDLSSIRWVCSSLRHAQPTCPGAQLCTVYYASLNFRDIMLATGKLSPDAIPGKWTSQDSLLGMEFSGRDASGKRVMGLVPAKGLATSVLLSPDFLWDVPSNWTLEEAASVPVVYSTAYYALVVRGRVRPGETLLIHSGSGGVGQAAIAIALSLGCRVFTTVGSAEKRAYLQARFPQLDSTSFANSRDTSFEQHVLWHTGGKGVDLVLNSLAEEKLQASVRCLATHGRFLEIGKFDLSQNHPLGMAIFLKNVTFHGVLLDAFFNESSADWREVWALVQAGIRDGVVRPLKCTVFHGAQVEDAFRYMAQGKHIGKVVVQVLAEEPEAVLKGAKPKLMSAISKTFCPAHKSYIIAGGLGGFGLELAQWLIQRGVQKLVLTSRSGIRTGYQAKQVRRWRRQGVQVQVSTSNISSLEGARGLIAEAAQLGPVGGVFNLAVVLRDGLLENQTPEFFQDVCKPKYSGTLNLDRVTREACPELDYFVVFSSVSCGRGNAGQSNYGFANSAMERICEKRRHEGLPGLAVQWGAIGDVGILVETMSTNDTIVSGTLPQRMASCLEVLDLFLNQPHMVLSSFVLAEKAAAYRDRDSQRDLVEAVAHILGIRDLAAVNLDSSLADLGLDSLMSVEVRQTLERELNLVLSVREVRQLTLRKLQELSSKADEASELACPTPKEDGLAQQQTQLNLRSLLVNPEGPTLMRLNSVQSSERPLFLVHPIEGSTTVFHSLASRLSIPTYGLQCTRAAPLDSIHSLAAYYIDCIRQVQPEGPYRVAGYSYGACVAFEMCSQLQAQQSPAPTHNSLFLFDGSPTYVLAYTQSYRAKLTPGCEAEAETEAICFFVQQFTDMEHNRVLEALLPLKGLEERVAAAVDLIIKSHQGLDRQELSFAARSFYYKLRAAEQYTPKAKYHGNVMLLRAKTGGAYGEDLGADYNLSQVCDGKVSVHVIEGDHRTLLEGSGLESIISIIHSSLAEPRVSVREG
Assay [10] is described as follows: Luminescence Cell-Based Dose Response HTS to Identify Inhibitors of 5'UTR Stem-Loop Driven Prion Protein mRNA Translation in H4 Neuroglioblastoma Cells. [Related pubchem assays: 1827 (Project Summary), 1813 (Primary HTS)]. In kind it is functional.
Assay [11] has as its system BJ. The experiment in a line: BJ-TERT fibroblast viability loss – cell-based, RAS-independent, luminescence, dose response (AID 1933). In kind it is functional. The settings on record: Homo sapiens.
Assay [12] concerns BJ. The experiment in a line: cells. As to conditions: Homo sapiens. In kind it is functional, cell-based.
For assay [13], the system named is Vero. The experiment in a line: mammalian cell viability reduction – secondary assay, cytotoxicity control for West Nile virus antiviral project, dose response (AID 1650). In kind it is functional. The settings on record: Chlorocebus sabaeus.
Assay [14] deals with Voltage-dependent T-type calcium channel subunit alpha-1H (Homo sapiens, UniProt O95180). In kind it is functional.
The nature of assay [15]: non-specific 3'UTR reporter inhibition in Clone20-Shn3RL – cell-based, Renilla luciferase, cherry-picked, counter-screen for Shn3 inhibitor project, dose response (AID 624133). In kind it is functional.
Assay [16] in a line: alpha-synuclein stem-loop luciferase translation blockers – H4 neuroglioma cells, luminescence, confirmation (AID 1988). In kind it is functional, cell-based.
A short description of assay [17]: DRD fibroblast viability loss – cell-based, non-viral oncogenic, luminescence, dose response (AID 1934). In kind it is functional. The settings on record: Homo sapiens.
Assay [18] is described as follows: luciferase reporter signal suppression in cells – H4 neuroglioma cells, luminescence, dose response (AID 1990). In kind it is functional, cell-based.
Assay [19] deals with BJ. The experiment in a line: BJ-TERT-LT-ST fibroblast viability loss – cell-based, RAS-independent, luminescence, dose response (AID 1935).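 Also: BJ fibroblasts immortalized with TERT plus LT and ST oncogenes.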 In kind it is functional. The settings on record: Homo sapiens.
Assay [20] relates to BJ. The assay is described as follows: growth inhibition of engineered Ras-driven BJ cells – cell-based, alamar blue fluorescence, cherrypicked samples, dose response (AID 2631).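 Also: confirmatory dose-response assay in RAS-dependent BJ fibroblasts engineered with TERT, LT and ST, with cytotoxicity read by fluorescence.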 In kind it is functional. The settings on record: Homo sapiens. For orientation: Alamar Blue is a resazurin reagent that responds to reducing activity.
A short description of assay [21]: loss of viability in HepG2 cells – cell-based, CellTiter-Glo, cherry-picked, cytotoxicity control for Shn3 inhibitor project, dose response (AID 624134). In kind it is functional. For orientation: ATP-based viability assays read luminescence as a measure of living cells.
A short description of assay [22]: reduction of Shn3 3'UTR-driven luciferase in osteoblasts – cell-based, Clone20 osteoblasts, firefly luciferase, cherry-picked, dose response (AID 624132).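 Also: firefly luciferase luminescence from reporter carrying the Shn3 3'UTR in osteoblasts.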 In kind it is functional.
Assay [23] deals with T1, Fatty acid synthase. The assay is described as follows: inhibition of human FAS-TE enzyme activity – biochemical, kinetic fluorescence intensity, dose response (AID 624326).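 Also: rate of fluorescence rise from hydrolysis of a fluorogenic O-methyl fluorescein ester substrate.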 In kind it is functional.
Assay [24] relates to Vero. The experiment in a line: cells. In kind it is functional. The settings on record: Chlorocebus sabaeus.
Assay [25] concerns Vero. The assay is described as follows: cells. In kind it is functional, cell-based. The settings on record: Chlorocebus sabaeus.
The nature of assay [26]: Reduced DLD-1 viability, concentration-response, CellTiter-Glo luminescence (AID 1117352). In kind it is functional.
Assay [27] in a line: SNU-C1 cell viability reduction, dose response, CellTiter-Glo luminescence (AID 1117323). In kind it is functional, cell-based.
The nature of assay [28]: cytotoxicity toward HCT116 cells – cell-based, CellTiter-Glo luminescence, IC50, dose response (AID 1117332). In kind it is functional. The settings on record: HCT-116.
Assay [29] can be described thus: CellTiter-Glo luminescence survival assay, SW480 colon tumor line, concentration-response curve, half-maximal inhibitory concentration (AID 1117338). In kind it is functional.
Assay [30] can be described thus: HCT116 cell viability decrease, GSK3B pretreatment – CellTiter-Glo, IC50, dose response (AID 1117339). In kind it is functional. As to conditions: HCT-116.
A short description of assay [31]: RKO cell viability reduction, dose response, CellTiter-Glo luminescence (AID 1117322). In kind it is functional.
Assay [32] in a line: cytotoxicity toward HT-29 cells – cell-based, CellTiter-Glo luminescence, IC50, dose response (AID 1117330). In kind it is functional.
The nature of assay [33]: cytotoxicity toward Colo320 cells – cell-based, CellTiter-Glo luminescence, IC50, dose response (AID 1117334). In kind it is functional. The settings on record: COLO 320.

Calls of active or inactive are those of the source.

For the compound `COC(=O)c1c(-c2cccnc2)csc1NC(=O)c1cc(C)on1`, the half-maximal effective concentration (EC50) – broadly, the concentration giving half of the maximal effect – in [1] was < 0.1 µM (inconclusive); in the assay on H4 it was 19.9 µM (inconclusive); in assay [2], 0.387 µM (active); in [3] it was 0.435 µM (active); in assay [6], 0.321 µM (active). The results for the half-maximal inhibitory concentration (IC50) (on Prothrombin; in [4]; in assay [5]) were 48.3 µM (active), > 100 µM (inactive) and 29.6 µM (active), respectively.
As for `CCOC(=O)c1csc(-c2ccc3c(c2)CCO3)n1`, the half-maximal effective concentration (EC50) is < 0.1 µM (active) in assay [1]; 0.552 µM (active) in the assay on H4; > 12 µM (not active) in assay [2]; 0.127 µM (active) in [7]; > 12 µM (not active) in assay [3]; > 12 µM (not active) in assay [6].
`COc1ccccc1S(=O)(=O)N(C)C[C@@H]1OCc2ccccc2-c2ccccc2C(=O)N([C@H](C)CO)C[C@@H]1C`: the AC50 (usually the concentration giving half of the maximal activity seen) in [8] is 4.71 µM (active).
Turning to `CCn1cc(C(=O)NCc2ccco2)c(=O)c2cc(S(=O)(=O)N3CC(C)CC(C)C3)ccc21` (stereo unspecified), the IC50 – broadly, the concentration that gives 50% inhibition – on Fatty acid synthase [9] was 4.25 µM (active); on Fatty acid synthase [23], 4.14 µM (active). The EC50 in [10] was 0.503 µM (active); in the assay on BJ [11], > 150 µM (not active); with BJ [12] it was 5.24 µM (active); in assay [14], 2.49 µM (active); in assay [16], 10.9 µM (active); in assay [17], 7.64 µM (active). In addition, the EC50 in assay [18] is 9.5 µM (active); with BJ [19], > 150 µM (inconclusive); in the assay with BJ [20] it was > 133 µM (inactive). In the assay with Vero [13], the cytotoxic concentration (CC50) (commonly the concentration giving 50% cytotoxicity) is 32.1 µM (active). The half-maximal activity concentration (AC50) in [15] is 1.67 µM (active); in assay [21], 4.32 µM (active); in [22], 0.778 µM (active).
Consider `COc1ccc(CCNC(=O)/C=C/c2ccc3ccccc3n2)cc1OC`, for which the results for the CC50 with Vero [24] and with Vero [13] were 16.4 µM (active) and 12 µM (active), respectively. In addition, the 50% inhibitory concentration (IC50) in the assay on Vero [25] is > 25 µM (active).
Take `O=C1c2ccccc2C(=O)C1C(=O)C(c1ccccc1)c1ccccc1` [DIPHENADIONE]: the IC50 in [26] was 1.33 µM (active); in assay [27] it was 4.01 µM (active); in assay [28], 0.531 µM (active); in [29], 0.536 µM (active); in assay [30] it was 0.567 µM (active); in assay [31], 1.59 µM (active). Also, the values for the concentration for half-maximal inhibition (IC50) in assay [32] and in assay [33] were 4.48 µM (active) and 0.621 µM (active), respectively.
